Laboratory results as given in patent US10654832B2, “3-(benzoimidazol-2-YL)-indazole inhibitors of the Wnt signaling pathway and therapeutic uses thereof” (Samumed, LLC, priority 2013, dated 2020).
pIC50: −log10 of the molar value.

What follows are molecules tested on Wnt activity (wnt-responsive SP5 promoter luciferase reporter in SW480 cells) (assay: Wnt activity reporter assay (SP5 promoter-firefly luciferase in SW480 cells)). Conditions: Homo sapiens; SW480 colon cancer cells with SP5 promoter luciferase reporter; 24 h after compound addition; half-log dilutions, three micromolar top concentration; normalized to DMSO; read-out: Wnt inhibition.
Format: cell-based
Excerpt: The above synthesized compounds were screened using the assay procedure for Wnt activity described below.
Reporter cell lines were generated by stably transducing cells of cancer cell lines (e.g., colon cancer) with a lentiviral construct that include a wnt-responsive promoter driving expression of the firefly luciferase gene.
Lentiviral constructs were made in which the SP5 promoter, a promoter having eight TCF/LEF binding sites derived from the SP5 promoter, was linked upstream of the firefly luciferase gene. The lentiviral constructs included a hygromycin resistance gene as a selectable marker. The SP5 promoter construct was used to transduce SW480 cells, a colon cancer cell line having a mutated APC gene that generates a truncated APC protein, leading to de-regulated accumulation of β-catenin.
Cultured SW480 cells bearing a reporter construct were distributed at approximately 10,000 cells per well into 384 well multiwell plates. Compounds were then added to the wells in half-log dilutions using a three micromolar top concentration. A series of control wells for each cell type received only buffer and compound solvent. Twenty-four hours after the addition of compound, reporter activity for luciferases was assayed, for example, by addition of the BrightGlo luminescence reagent (Promega) and the Victor3 plate reader (Perkin Elmer). Readings were normalized to DMSO only treated cells, and normalized activities were then used for the IC50 calculations.

| Compound | pIC50 |
| --- | --- |
| CCCCC(=O)Nc1cncc(-c2ccc3[nH]nc(-c4nc5c(-c6ccccn6)cccc5[nH]4)c3c2)c1 [Compound 138, N-(5-(3-(4-(Pyridin-2-yl)-1H-benzo[d]imidazol-2-yl)-1H-indazol-5-yl)pyridin-3-yl)pentanamide] | 7.74 |
| O=C(Nc1cncc(-c2ccc3[nH]nc(-c4nc5c(-c6ccccn6)cccc5[nH]4)c3c2)c1)C1CCC1 [Compound 140, N-(5-(3-(4-(Pyridin-2-yl)-1H-benzo[d]imidazol-2-yl)-1H-indazol-5-yl)pyridin-3-yl)cyclobutanecarboxamide] | 8.10 |
| O=C(Nc1cncc(-c2ccc3[nH]nc(-c4nc5c(-c6ccccn6)cccc5[nH]4)c3c2)c1)C1CCCCC1 [Compound 142, N-(5-(3-(4-(Pyridin-2-yl)-1H-benzo[d]imidazol-2-yl)-1H-indazol-5-yl)pyridin-3-yl)cyclohexanecarboxamide] | 6.81 |
| c1ccc(-c2cccc3[nH]c(-c4n[nH]c5ccc(-c6cncc(CNCC7CCCC7)c6)cc45)nc23)nc1 [Compound 144, 1-Cyclopentyl-N-((5-(3-(4-(pyridin-2-yl)-1H-benzo[d]imidazol-2-yl)-1H-indazol-5-yl)pyridin-3-yl)methyl)methanamine] | 5.93 |
| CC(C)CC(=O)Nc1cncc(-c2ccc3[nH]nc(-c4nc5c(N6CCCCC6)cccc5[nH]4)c3c2)c1 [Compound 146, 3-Methyl-N-(5-(3-(4-(piperidin-1-yl)-1H-benzo[d]imidazol-2-yl)-1H-indazol-5-yl)pyridin-3-yl)butanamide] | 7.24 |
| CN(C)c1cncc(-c2ccc3[nH]nc(-c4nc5c(N6CCCCC6)cccc5[nH]4)c3c2)c1 [Compound 151, N,N-Dimethyl-5-(3-(4-(piperidin-1-yl)-1H-benzo[d]imidazol-2-yl)-1H-indazol-5-yl)pyridin-3-amine] | 7.39 |
| O=C(Nc1cncc(-c2ccc3[nH]nc(-c4nc5c(N6CCCCC6)cccc5[nH]4)c3c2)c1)c1ccccc1 [Compound 155, N-(5-(3-(4-(Piperidin-1-yl)-1H-benzo[d]imidazol-2-yl)-1H-indazol-5-yl)pyridin-3-yl)benzamide] | 6.54 |
| CC(C)Nc1cncc(-c2ccc3[nH]nc(-c4nc5c(N6CCCCC6)cccc5[nH]4)c3c2)c1 [Compound 156, N-Isopropyl-5-(3-(4-(piperidin-1-yl)-1H-benzo[d]imidazol-2-yl)-1H-indazol-5-yl)pyridin-3-amine] | 7.18 |
| c1cc(N2CCCCC2)c2nc(-c3n[nH]c4ccc(-c5cncc(CN6CCCC6)c5)cc34)[nH]c2c1 [Compound 158, 3-(4-(Piperidin-1-yl)-1H-benzo[d]imidazol-2-yl)-5-(5-(pyrrolidin-1-ylmethyl)pyridin-3-yl)-1H-indazole] | 6.94 |
| CCCCC(=O)Nc1cncc(-c2ccc3[nH]nc(-c4nc5c(N6CCCCC6)cccc5[nH]4)c3c2)c1 [Compound 162, N-(5-(3-(4-(Piperidin-1-yl)-1H-benzo[d]imidazol-2-yl)-1H-indazol-5-yl)pyridin-3-yl)pentanamide] | 6.85 |
| O=C(Nc1cncc(-c2ccc3[nH]nc(-c4nc5c(N6CCCCC6)cccc5[nH]4)c3c2)c1)C1CCCCC1 [Compound 166, N-(5-(3-(4-(Piperidin-1-yl)-1H-benzo[d]imidazol-2-yl)-1H-indazol-5-yl)pyridin-3-yl)cyclohexanecarboxamide] | 6.35 |
| Cc1cn(-c2cccc3[nH]c(-c4n[nH]c5ccc(-c6cnccc6C)cc45)nc23)cn1 [Compound 173] | 7.34 |
| Cc1cn(-c2cccc3[nH]c(-c4n[nH]c5ccc(-c6cncc(NC(=O)c7ccccc7)c6)cc45)nc23)cn1 [Compound 179, N-(5-(3-(4-(4-Methyl-1H-imidazol-1-yl)-1H-benzo[d]imidazol-2-yl)-1H-indazol-5-yl)pyridin-3-yl)benzamide] | 8.00 |
| Cc1cn(-c2cccc3[nH]c(-c4n[nH]c5ccc(-c6cncc(NC(=O)CC(C)(C)C)c6)cc45)nc23)cn1 [Compound 184, 3,3-Dimethyl-N-(5-(3-(4-(4-methyl-1H-imidazol-1-yl)-1H-benzo[d]imidazol-2-yl)-1H-indazol-5-yl)pyridin-3-yl)butanamide] | 6.94 |
| CCCCC(=O)Nc1cncc(-c2ccc3[nH]nc(-c4nc5c(-n6cnc(C)c6)cccc5[nH]4)c3c2)c1 [Compound 186, N-(5-(3-(4-(4-Methyl-1H-imidazol-1-yl)-1H-benzo[d]imidazol-2-yl)-1H-indazol-5-yl)pyridin-3-yl)pentanamide] | 8.22 |
| Cc1cn(-c2cccc3[nH]c(-c4n[nH]c5ccc(-c6cncc(NC(=O)C7CCCC7)c6)cc45)nc23)cn1 [Compound 189, N-(5-(3-(4-(4-Methyl-1H-imidazol-1-yl)-1H-benzo[d]imidazol-2-yl)-1H-indazol-5-yl)pyridin-3-yl)cyclopentanecarboxamide] | 7.89 |
| Cc1cn(-c2cccc3[nH]c(-c4n[nH]c5ccc(-c6cncc(CNCc7ccccc7)c6)cc45)nc23)cn1 [Compound 191, N-Benzyl-1-(5-(3-(4-(4-methyl-1H-imidazol-1-yl)-1H-benzo[d]imidazol-2-yl)-1H-indazol-5-yl)pyridin-3-yl)methanamine] | 6.86 |

| Compound | pIC50 |
| --- | --- |
| CN1CCN(c2cccc3[nH]c(-c4n[nH]c5ccc(-c6cccnc6)cc45)nc23)CC1 [Compound 196, 3-(4-(4-Methylpiperazin-1-yl)-1H-benzo[d]imidazol-2-yl)-5-(pyridin-3-yl)-1H-indazole] | 7.55 |
| Cc1ccncc1-c1ccc2[nH]nc(-c3nc4c(N5CCN(C)CC5)cccc4[nH]3)c2c1 [Compound 197, 3-(4-(4-Methylpiperazin-1-yl)-1H-benzo[d]imidazol-2-yl)-5-(4-methylpyridin-3-yl)-1H-indazole] | 6.60 |
| CN1CCN(c2cccc3[nH]c(-c4n[nH]c5ccc(-c6cncc(NC(=O)C(C)(C)C)c6)cc45)nc23)CC1 [Compound 200, N-(5-(3-(4-(4-Methylpiperazin-1-yl)-1H-benzo[d]imidazol-2-yl)-1H-indazol-5-yl)pyridin-3-yl)pivalamide] | 7.12 |
| CN1CCN(c2cccc3[nH]c(-c4n[nH]c5ccc(-c6cncc(NC(=O)Cc7ccccc7)c6)cc45)nc23)CC1 [Compound 202, N-(5-(3-(4-(4-methylpiperazin-1-yl)-1H-benzo[d]imidazol-2-yl)-1H-indazol-5-yl)pyridin-3-yl)-2-phenylacetamide] | 6.61 |
| CCCC(=O)Nc1cncc(-c2ccc3[nH]nc(-c4nc5c(N6CCN(C)CC6)cccc5[nH]4)c3c2)c1 [Compound 209, N-(5-(3-(4-(4-Methylpiperazin-1-yl)-1H-benzo[d]imidazol-2-yl)-1H-indazol-5-yl)pyridin-3-yl)butyramide] | 7.21 |
| CN1CCN(c2cccc3[nH]c(-c4n[nH]c5ccc(-c6cncc(NC(=O)C7CCCC7)c6)cc45)nc23)CC1 [Compound 213, N-(5-(3-(4-(4-Methylpiperazin-1-yl)-1H-benzo[d]imidazol-2-yl)-1H-indazol-5-yl)pyridin-3-yl)cyclopentanecarboxamide] | 6.71 |
| CC(C)CC(=O)Nc1cncc(-c2ccc3[nH]nc(-c4nc5ccccc5[nH]4)c3c2)c1 [Compound 218, N-(5-(3-(1H-Benzo[d]imidazol-2-yl)-1H-indazol-5-yl)pyridin-3-yl)-3-methylbutanamide] | 7.43 |
| c1cncc(-c2ccc3[nH]nc(-c4nc5ccccc5[nH]4)c3c2)c1 [Compound 220] | 6.78 |
| Cc1ccncc1-c1ccc2[nH]nc(-c3nc4ccccc4[nH]3)c2c1 [Compound 221, 3-(1H-Benzo[d]imidazol-2-yl)-5-(4-methylpyridin-3-yl)-1H-indazole] | 6.50 |
| CCNCc1cncc(-c2ccc3[nH]nc(-c4nc5ccccc5[nH]4)c3c2)c1 [Compound 222] | 6.63 |
| CC(C)C(=O)Nc1cncc(-c2ccc3[nH]nc(-c4nc5ccccc5[nH]4)c3c2)c1 [Compound 225, N-(5-(3-(1H-Benzo[d]imidazol-2-yl)-1H-indazol-5-yl)pyridin-3-yl) isobutyramide] | 7.55 |
| O=C(Nc1cncc(-c2ccc3[nH]nc(-c4nc5ccccc5[nH]4)c3c2)c1)c1ccccc1 [Compound 227, N-(5-(3-(1H-Benzo[d]imidazol-2-yl)-1H-indazol-5-yl)pyridin-3-yl) benzamide] | 7.00 |
| CC(C)(C)CC(=O)Nc1cncc(-c2ccc3[nH]nc(-c4nc5ccccc5[nH]4)c3c2)c1 [Compound 232, N-(5-(3-(1H-Benzo[d]imidazol-2-yl)-1H-indazol-5-yl)pyridin-3-yl)-3,3-dimethylbutanamide] | 7.19 |
| CCCCC(=O)Nc1cncc(-c2ccc3[nH]nc(-c4nc5ccccc5[nH]4)c3c2)c1 [Compound 234, N-(5-(3-(1H-Benzo[d]imidazol-2-yl)-1H-indazol-5-yl)pyridin-3-yl) pentanamide] | 6.91 |
| O=C(Nc1cncc(-c2ccc3[nH]nc(-c4nc5ccccc5[nH]4)c3c2)c1)C1CC1 [Compound 235, N-(5-(3-(1H-Benzo[d]imidazol-2-yl)-1H-indazol-5-yl)pyridin-3-yl) cyclopropanecarboxamide] | 7.60 |
| O=C(Nc1cncc(-c2ccc3[nH]nc(-c4nc5ccccc5[nH]4)c3c2)c1)C1CCCCC1 [Compound 238, N-(5-(3-(1H-Benzo[d]imidazol-2-yl)-1H-indazol-5-yl)pyridin-3-yl) cyclohexanecarboxamide] | 6.83 |
